The record followed here is ChEMBL document CHEMBL1150143, “Aldehyde dehydrogenase inhibitors from the mushroom Clitocybe clavipes” (J Nat Prod, 2002).

The target of assay [1] is T1, Aldehyde dehydrogenase 1, mitochondrial (Saccharomyces cerevisiae, UniProt P22281).
T1 sequence (P22281 whole entry): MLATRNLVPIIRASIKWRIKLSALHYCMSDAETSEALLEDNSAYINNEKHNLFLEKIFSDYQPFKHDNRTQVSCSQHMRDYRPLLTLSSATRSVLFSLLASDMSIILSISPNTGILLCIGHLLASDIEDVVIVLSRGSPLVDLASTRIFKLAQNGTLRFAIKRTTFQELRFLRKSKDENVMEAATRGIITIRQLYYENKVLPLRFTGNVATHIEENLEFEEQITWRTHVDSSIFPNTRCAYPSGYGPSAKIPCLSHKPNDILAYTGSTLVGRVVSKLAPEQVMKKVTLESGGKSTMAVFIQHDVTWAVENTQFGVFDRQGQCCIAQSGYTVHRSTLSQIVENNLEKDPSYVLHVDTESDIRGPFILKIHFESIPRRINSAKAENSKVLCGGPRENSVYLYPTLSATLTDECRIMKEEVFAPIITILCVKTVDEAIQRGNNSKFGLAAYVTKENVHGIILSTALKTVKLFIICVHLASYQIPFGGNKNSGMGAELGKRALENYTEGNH
The assay can be described thus: Inhibition of yeast aldehyde dehydrogenase by spectrophotometry following NADH formation at 340 nm.

Assay [2] addresses T2, Aldehyde dehydrogenase 1, mitochondrial (Saccharomyces cerevisiae) (UniProt P22281).
T2 sequence (whole entry): T1 sequence (P22281 whole entry)
Description: Inhibition of yeast aldehyde dehydrogenase at 0.5 mM by spectrophotometry following NADH formation at 340 nm.

In the case of `CCCCCC/C=C/C(=O)CCCCCCC(=O)OCC`, the IC50 in assay [1] came to 170 µM. In assay [1], `CCCCCCCC/C=C/C(=O)CCCCCCC(=O)O` registered an IC50 of 280 µM.

With `CCCCCCCC/C=C/C(=O)CCCCCCC(=O)OCC`, half-maximal inhibition in assay [1] (IC50) required 430 µM.

In assay [2], `CCCCCC(=O)/C=C/C=C/CCCCCCCC(=O)OCC(O)CO` (stereo not given) displayed an inhibition of less than 50%.

In assay [2], `CCCCC/C=C/C=C/C(=O)CCCCCCCC(=O)O` had an inhibition of less than 50%.

For orientation: IC50 means the concentration at which inhibition is half-maximal. A low value points to higher potency. In general, inhibition refers to the relative decrease from the control value, in per cent.
